In patent publication US10793564B2, “Amino acid compounds and methods of use” (Pliant Therapeutics, Inc., priority 2018, dated 2020):

biological target: recombinant human integrin αVβ6 (Homo sapiens (Human), UniProt P06756+P18564); test: Solid phase integrin αVβ6 binding assay; conditions: inhibition of recombinant TGFβ1 LAP binding to coated integrin, IC50 presented in four ranges, read-out: αvβ6 Inhibition IC50 (nM) - range
Experimental: (§1) Microplates were coated with recombinant human integrin αVβ6 (2 μg/mL) in PBS (100 μL/well 25° C., overnight). The coating solution was removed, washed with wash buffer (0.05% Tween 20; 0.5 mM MnCl2; in 1×TBS). The plate was blocked with 200 μL/well of Block Buffer (1% BSA; 5% sucrose; 0.5 mM MnCl2; in 1×TBS) at 37° C. for 2 h. Dilutions of testing compounds and recombinant TGFβ1 LAP (0.67 μg/mL) in binding buffer (0.05% BSA; 2.5% sucrose; 0.5 mM MnCl2; in 1×TBS) were added. The plate was incubated for 2 hours at 25° C., washed, and incubated for 1 hour with Biotin-Anti-hLAP. Bound antibody was detected by peroxidase-conjugated streptavidin. The IC50 values for testing compounds were calculated by a four-parameter logistic regression.
The compounds tested were compound samples prepared according to procedures described in the Synthetic Examples section, with the stereochemical purity as indicated in the Examples.
as §1, with “A third series of exemplary compounds was selected for testing in the solid phase integrin αVβ6 binding assay. The compounds tested were compound samples prepared according to procedures described in the Synthetic Examples section, with the stereochemical purity as indicated in the Examples. As in Example B1, microplates were” for “Microplates were”, “(0.67 g/mL)” for “(0.67 μg/mL)”

recombinant human integrin αVβ6, sequence (P06756 31-992): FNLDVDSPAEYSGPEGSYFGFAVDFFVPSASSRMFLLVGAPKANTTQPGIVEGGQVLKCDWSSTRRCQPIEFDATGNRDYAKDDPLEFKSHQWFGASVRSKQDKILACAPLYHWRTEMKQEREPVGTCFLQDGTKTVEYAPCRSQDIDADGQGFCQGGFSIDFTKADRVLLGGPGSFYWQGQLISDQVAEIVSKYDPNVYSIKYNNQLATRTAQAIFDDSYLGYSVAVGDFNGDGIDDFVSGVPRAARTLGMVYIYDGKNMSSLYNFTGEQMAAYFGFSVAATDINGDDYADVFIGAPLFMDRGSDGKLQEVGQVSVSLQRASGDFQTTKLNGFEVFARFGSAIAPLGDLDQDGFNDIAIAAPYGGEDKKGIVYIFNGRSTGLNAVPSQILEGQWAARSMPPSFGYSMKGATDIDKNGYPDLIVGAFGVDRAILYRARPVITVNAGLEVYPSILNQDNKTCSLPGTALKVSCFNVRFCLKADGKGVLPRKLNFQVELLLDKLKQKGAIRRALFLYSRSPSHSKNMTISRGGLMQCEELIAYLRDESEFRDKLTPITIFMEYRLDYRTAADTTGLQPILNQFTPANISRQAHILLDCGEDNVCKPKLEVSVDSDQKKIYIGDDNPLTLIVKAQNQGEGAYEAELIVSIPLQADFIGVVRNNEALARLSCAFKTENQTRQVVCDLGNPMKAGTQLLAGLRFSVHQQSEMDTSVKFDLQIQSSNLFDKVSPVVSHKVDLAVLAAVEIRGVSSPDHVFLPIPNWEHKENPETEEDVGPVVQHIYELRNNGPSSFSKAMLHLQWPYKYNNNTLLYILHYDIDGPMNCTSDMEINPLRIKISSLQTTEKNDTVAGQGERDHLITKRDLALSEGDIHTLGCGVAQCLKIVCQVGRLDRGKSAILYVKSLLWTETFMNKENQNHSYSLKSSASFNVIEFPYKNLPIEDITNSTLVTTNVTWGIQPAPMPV
recombinant human integrin αVβ6, sequence (P18564 22-707): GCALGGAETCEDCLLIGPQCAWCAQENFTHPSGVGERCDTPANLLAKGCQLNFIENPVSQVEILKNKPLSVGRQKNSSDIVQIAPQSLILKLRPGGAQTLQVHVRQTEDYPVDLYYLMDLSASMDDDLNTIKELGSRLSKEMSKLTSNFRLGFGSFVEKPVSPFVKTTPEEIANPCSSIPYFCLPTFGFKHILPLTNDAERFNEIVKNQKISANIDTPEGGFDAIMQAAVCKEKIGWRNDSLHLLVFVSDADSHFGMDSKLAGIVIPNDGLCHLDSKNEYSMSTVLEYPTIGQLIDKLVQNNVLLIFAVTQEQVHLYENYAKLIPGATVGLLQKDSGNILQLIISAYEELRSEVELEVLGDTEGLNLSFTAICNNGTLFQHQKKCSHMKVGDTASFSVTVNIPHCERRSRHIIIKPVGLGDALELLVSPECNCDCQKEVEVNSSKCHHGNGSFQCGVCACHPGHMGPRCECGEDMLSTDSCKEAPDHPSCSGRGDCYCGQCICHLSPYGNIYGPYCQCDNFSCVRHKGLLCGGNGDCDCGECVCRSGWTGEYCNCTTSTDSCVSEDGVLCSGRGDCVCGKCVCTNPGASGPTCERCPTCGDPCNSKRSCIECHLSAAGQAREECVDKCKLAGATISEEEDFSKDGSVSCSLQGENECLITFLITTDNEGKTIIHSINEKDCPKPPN

O=C(O)[C@H](CCN(CCCCc1ccc2c(n1)NCCC2)CCOc1ccccc1)Nc1ncnc2ccccc12 [Compound 28, (S)-4-((2-phenoxyethyl) (4-(5,6,7,8-tetrahydro-1,8-naphthyridin-2-yl)butyl)amino)-2-(quinazolin-4-ylamino) butanoic Acid] and O=C(O)[C@H](CCN(CCCCc1ccc2c(n1)NCCC2)CCOc1cc(F)cc(F)c1)Nc1ncnc2ccccc12 [Compound 47, (S)-4-((2-(3,5-difluorophenoxy)ethyl) (4-(5,6,7,8-tetrahydro-1,8-naphthyridin-2-yl)butyl)amino)-2-(quinazolin-4-ylamino) butanoic Acid] cannot be ordered by IC50: < 50 nM for the first, < 50 nM for the second.

O=C(O)[C@H](CCN(CCCCc1ccc2c(n1)NCCC2)CCC(F)F)Nc1ncnc2ccccc12 [Compound 29, (S)-4-((3,3-difluoropropyl) (4-(5,6,7,8-tetrahydro-1,8-naphthyridin-2-yl)butyl)amino)-2-(quinazolin-4-ylamino) butanoic Acid] and O=C(O)[C@H](CCN(CCCCc1ccc2c(n1)NCCC2)CCOC(F)F)Nc1ncnc2ccccc12 [Compound 35, (S)-4-((2-(difluoromethoxy)ethyl) (4-(5,6,7,8-tetrahydro-1,8-naphthyridin-2-yl)butyl)amino)-2-(quinazolin-4-ylamino) butanoic Acid] cannot be ordered by IC50: < 50 nM for the first, < 50 nM for the second.

O=C(O)[C@H](CCN(CCCF)CCCCc1ccc2c(n1)NCCC2)Nc1ncnc2ccccc12 [Compound 30, (S)-4-((3-fluoropropyl) (4-(5,6,7,8-tetrahydro-1,8-naphthyridin-2-yl)butyl)amino)-2-(quinazolin-4-ylamino) butanoic Acid] and COc1ccc2c(N[C@@H](CCN(CCCF)CCCCc3ccc4c(n3)NCCC4)C(=O)O)ncnc2c1 [Compound 41, (S)-4-((3-fluoropropyl) (4-(5,6,7,8-tetrahydro-1,8-naphthyridin-2-yl)butyl)amino)-2-((7-methoxyquinazolin-4-yl)amino) butanoic Acid] cannot be ordered by IC50: < 50 nM for the first, < 50 nM for the second.

COC[C@@H](F)CN(CCCCc1ccc2c(n1)NCCC2)CC[C@H](Nc1ncnc2ccccc12)C(=O)O [Compound 31, (S)-4-(((S)-2-fluoro-3-methoxypropyl) (4-(5,6,7,8-tetrahydro-1,8-naphthyridin-2-yl)butyl)amino)-2-(quinazolin-4-ylamino) butanoic Acid] and COC[C@@H](F)CN(CCCCc1ccc2c(n1)NCCC2)CC[C@H](Nc1nc(C)nc2ccccc12)C(=O)O [Compound 46, (S)-4-(((S)-2-fluoro-3-methoxypropyl) (4-(5,6,7,8-tetrahydro-1,8-naphthyridin-2-yl)butyl)amino)-2-((2-methylquinazolin-4-yl)amino) butanoic Acid] cannot be ordered by IC50: < 50 nM for the first, < 50 nM for the second.

COC[C@@H](F)CN(CCCCc1ccc2c(n1)NCCC2)CC[C@H](Nc1nc(C)nc2cc(F)ccc12)C(=O)O [Compound 32, (S)-2-((7-fluoro-2-methylquinazolin-4-yl)amino)-4-(((S)-2-fluoro-3-methoxypropyl) (4-(5,6,7,8-tetrahydro-1,8-naphthyridin-2-yl)butyl)amino) butanoic Acid] and Cc1nc(N[C@@H](CCN(CCCCc2ccc3c(n2)NCCC3)CCOC2CC2(F)F)C(=O)O)c2ccc(F)cc2n1 (stereo partly drawn) [Compound 42, (2S)-4-((2-(2,2-difluorocyclopropoxy)ethyl) (4-(5,6,7,8-tetrahydro-1,8-naphthyridin-2-yl)butyl)amino)-2-((7-fluoro-2-methylquinazolin-4-yl)amino) butanoic Acid] cannot be ordered by IC50: < 50 nM for the first, < 50 nM for the second.

Cc1nc(N[C@@H](CCN(CCCCc2ccc3c(n2)NCCC3)CC2CC(F)(F)C2)C(=O)O)c2ccc(F)cc2n1 [Compound 33, (S)-4-(((3,3-difluorocyclobutyl)methyl) (4-(5,6,7,8-tetrahydro-1,8-naphthyridin-2-yl)butyl)amino)-2-((7-fluoro-2-methylquinazolin-4-yl)amino) butanoic Acid] and Cc1nc(N[C@@H](CCN(CCCCc2ccc3c(n2)NCCC3)CCOc2ccc(F)cc2)C(=O)O)c2ccc(F)cc2n1 [Compound 40, (S)-2-((7-fluoro-2-methylquinazolin-4-yl)amino)-4-((2-(4-fluorophenoxy)ethyl) (4-(5,6,7,8-tetrahydro-1,8-naphthyridin-2-yl)butyl)amino) butanoic Acid] cannot be ordered by IC50: < 50 nM for the first, < 50 nM for the second.

COCCN(CCCCc1ccc2c(n1)NCCC2)CC[C@H](Nc1nccc2ccccc12)C(=O)O [Compound 34, (S)-2-(isoquinolin-1-ylamino)-4-((2-methoxyethyl) (4-(5,6,7,8-tetrahydro-1,8-naphthyridin-2-yl)butyl)amino) butanoic Acid] and COCCN(CCCCc1ccc2c(n1)NCCC2)CC[C@H](Nc1ccnc2ccccc12)C(=O)O [Compound 36, (S)-4-((2-methoxyethyl) (4-(5,6,7,8-tetrahydro-1,8-naphthyridin-2-yl)butyl)amino)-2-(quinolin-4-ylamino) butanoic Acid] cannot be ordered by IC50: > 1000 nM for the first, > 1000 nM for the second.

First: COCCN(CCCCc1ccc2c(n1)NCCC2)CC[C@H](Nc1ncnc2cc(Cl)ccc12)C(=O)O [Compound 37, (S)-2-((7-chloroquinazolin-4-yl)amino)-4-((2-methoxyethyl) (4-(5,6,7,8-tetrahydro-1,8-naphthyridin-2-yl)butyl)amino) butanoic Acid]
Second: COCCN(CCCCc1ccc2c(n1)NCCC2)CC[C@H](Nc1ncnc2c(Cl)cccc12)C(=O)O [Compound 38, (S)-2-((8-chloroquinazolin-4-yl)amino)-4-((2-methoxyethyl) (4-(5,6,7,8-tetrahydro-1,8-naphthyridin-2-yl)butyl)amino) butanoic Acid]
The IC50 of the first is higher: 50 to 250 nM for the first, < 50 nM for the second. The second is the more potent here.

O=C(O)[C@H](CCN(CCCCc1ccc2c(n1)NCCC2)CCOCC(F)(F)F)Nc1ncnc2ccccc12 [Compound 39, (S)-2-(quinazolin-4-ylamino)-4-((4-(5,6,7,8-tetrahydro-1,8-naphthyridin-2-yl)butyl) (2-(2,2,2-trifluoroethoxy)ethyl)amino) butanoic Acid] and Cc1cc(C)n(CCN(CCCCc2ccc3c(n2)NCCC3)CC[C@H](Nc2ncnc3ccccc23)C(=O)O)n1 [Compound 45, (S)-4-((2-(3,5-dimethyl-1H-pyrazol-1-yl)ethyl) (4-(5,6,7,8-tetrahydro-1,8-naphthyridin-2-yl)butyl)amino)-2-(quinazolin-4-ylamino) butanoic Acid] cannot be ordered by IC50: < 50 nM for the first, < 50 nM for the second.

COc1cccc2c(N[C@@H](CCN(CCCF)CCCCc3ccc4c(n3)NCCC4)C(=O)O)ncnc12 [Compound 43, (S)-4-((3-fluoropropyl) (4-(5,6,7,8-tetrahydro-1,8-naphthyridin-2-yl)butyl)amino)-2-((8-methoxyquinazolin-4-yl)amino) butanoic Acid] and O=C(O)[C@H](CCN(CCCCc1ccc2c(n1)NCCC2)CCOc1ccccn1)Nc1ncnc2c(Cl)cccc12 [Compound 48, (S)-2-((8-chloroquinazolin-4-yl)amino)-4-((2-(pyridin-2-yloxy)ethyl) (4-(5,6,7,8-tetrahydro-1,8-naphthyridin-2-yl)butyl)amino) butanoic Acid] cannot be ordered by IC50: < 50 nM for the first, < 50 nM for the second.

In the case of COCCN(CCCCc1ccc2c(n1)NCCC2)CC[C@H](Nc1cc(-n2cccn2)ncn1)C(=O)O [Compound 44, (S)-2-((6-(1H-pyrazol-1-yl)pyrimidin-4-yl)amino)-4-((2-methoxyethyl) (4-(5,6,7,8-tetrahydro-1,8-naphthyridin-2-yl)butyl)amino) butanoic Acid], the IC50 is reported as < 50 nM.
